{"source": "patent US11203587B2", "about": "“Thyroid hormone receptor beta agonist compounds” (Terns, Inc., priority 2018, dated 2021)", "key": {"[1]": {"target": "T1, THR beta-LBD (Homo sapiens, UniProt P10828)", "T1 construct": "THR alpha-LBD (0.4 nM final concentration) or THR beta-LBD (1.0 nM final concentration) was added; purchased ThermoFisher", "T1 sequence (P10828 217-461 limits assumed)": "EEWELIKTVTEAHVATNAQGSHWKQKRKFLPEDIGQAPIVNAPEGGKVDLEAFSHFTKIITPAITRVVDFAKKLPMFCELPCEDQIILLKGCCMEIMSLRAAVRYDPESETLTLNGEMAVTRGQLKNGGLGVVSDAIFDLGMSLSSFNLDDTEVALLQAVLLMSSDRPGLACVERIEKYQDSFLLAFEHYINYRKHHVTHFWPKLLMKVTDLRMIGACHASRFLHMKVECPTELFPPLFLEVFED", "test": "LanthaScreen TR-FRET Thyroid Receptor beta Coactivator Assay", "assay_type": "biochemical", "details": "for THRβ-Selectivity: THR beta over THR alpha, derived from T3-selectivity normalized data; for EC50: TR-FRET coactivator assay, 2 hours incubation at room temperature, run in duplicate multiple times, average data, read-out: EC50 THRβ-FRET", "protocol": "LanthaScreen™ TR-FRET Thyroid Receptor alpha Coactivator Assay kit (ThermoFisher) and LanthaScreen™ TR-FRET Thyroid Receptor beta Coactivator Assay kit (ThermoFisher) were used for agonist compound screening. […] Buffer C (ThermoFisher) was added to each well before the 4× mixture of fluorescein-SCR2-2 coactivator (200 nM final concentration), Terbium-labeled anti-GST antibody (2 nM final concentration), and THR alpha-LBD (0.4 nM final concentration) or THR beta-LBD (1.0 nM final concentration) was added."}, "[2]": {"target": "T2, THR alpha-LBD (Homo sapiens, UniProt P10827)", "T2 construct": "THR alpha-LBD (0.4 nM final concentration) or THR beta-LBD (1.0 nM final concentration) was added; purchased ThermoFisher", "T2 sequence (P10827 163-410 isoform P10827-2 limits assumed, other chains not shown)": "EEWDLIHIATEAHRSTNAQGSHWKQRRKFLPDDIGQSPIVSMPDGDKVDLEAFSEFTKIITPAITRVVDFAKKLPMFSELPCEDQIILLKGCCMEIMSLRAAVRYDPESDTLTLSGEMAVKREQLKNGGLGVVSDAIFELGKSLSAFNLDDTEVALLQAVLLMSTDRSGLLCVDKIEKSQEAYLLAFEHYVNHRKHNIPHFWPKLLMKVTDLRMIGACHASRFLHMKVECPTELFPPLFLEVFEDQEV", "test": "LanthaScreen TR-FRET Thyroid Receptor alpha Coactivator Assay", "assay_type": "biochemical", "details": "2 hours incubation at room temperature, run in duplicate multiple times, average data, read-out: EC50 THRα-FRET", "protocol": "Example B1: Time-Resolved Fluorescence Resonance Energy Transfer (TR-FRET) Assay for Thyroid Hormone Receptor Agonist Screening\nLanthaScreen™ TR-FRET Thyroid Receptor alpha Coactivator Assay kit (ThermoFisher) and LanthaScreen™ TR-FRET Thyroid Receptor beta Coactivator Assay kit (ThermoFisher) were used for agonist compound screening. Compounds in DMSO were diluted using ECHO Liquid Handler (Labcyte Inc.) into 384 plates in 10-point 3-fold series in duplicate (5 micro M final top concentration). Buffer C (ThermoFisher) was added to each well before the 4× mixture of fluorescein-SCR2-2 coactivator (200 nM final concentration), Terbium-labeled anti-GST antibody (2 nM final concentration), and THR alpha-LBD (0.4 nM final concentration) or THR beta-LBD (1.0 nM final concentration) was added. After 2 hours incubation at room temperature in the dark, the TR-FRET signal was measured on an EnVision plate reader (PerkinElmer) with excitation at 340 nm and dual emission readout at 495 and 520 nm with the delay time of 100 micro second and the integration time of 200 micro second. The ratio of emission signal at 520 and at 495 was used to calculate EC50 using GraphPad Prism (GraphPad Software). […] Compounds' THR-beta selectivity values in Table 2 are derived from T3-selectivity normalized data."}}, "data": [{"smiles": "CC(C)c1cc(Oc2c(Cl)cc(-c3nn(CC(F)F)c(=O)[nH]c3=O)cc2Cl)nn(C)c1=O", "note": "[Compound 24, 6-(3,5-dichloro-4-((5-isopropyl-1-methyl-6-oxo-1,6-dihydropyridazin-3-yl)oxy)phenyl)-2-(2,2-difluoroethyl)-1,2,4-triazine-3,5(2H,4H)-dione]", "values": [{"measurement": "THRβ-Selectivity", "setting": "[1]", "result": 4.7}, {"measurement": "EC50", "setting": "[1]", "result": 1.19, "unit": "µM"}, {"measurement": "EC50", "setting": "[2]", "result": 1.48, "unit": "µM"}]}, {"smiles": "CC(C)c1cc(Oc2c(Cl)cc(-c3n[nH]c(=O)[nH]c3=O)c(F)c2Cl)nn(C)c1=O", "note": "[Compound 25, 6-(3,5-dichloro-2-fluoro-4-((5-isopropyl-1-methyl-6-oxo-1,6-dihydropyridazin-3-yl)oxy)phenyl)-1,2,4-triazine-3,5(2H,4H)-dione]", "values": [{"measurement": "THRβ-Selectivity", "setting": "[1]", "result": 4.4}, {"measurement": "EC50", "setting": "[1]", "result": 0.0222, "unit": "µM"}, {"measurement": "EC50", "setting": "[2]", "result": 0.025, "unit": "µM"}]}, {"smiles": "CCC(CC)c1cc(Oc2c(Cl)cc(-c3nn(C)c(=O)[nH]c3=O)cc2Cl)n[nH]c1=O", "note": "[Compound 27, 6-(3,5-dichloro-4-((6-oxo-5-(pentan-3-yl)-1,6-dihydropyridazin-3-yl)oxy)phenyl)-2-methyl-1,2,4-triazine-3,5(2H,4H)-dione]", "values": [{"measurement": "THRβ-Selectivity", "setting": "[1]", "result": 33.9}, {"measurement": "EC50", "setting": "[1]", "result": 0.213, "unit": "µM"}, {"measurement": "EC50", "setting": "[2]", "result": 1.75, "unit": "µM"}]}, {"smiles": "CCc1cc(Oc2c(Cl)cc(-c3nn(C)c(=O)[nH]c3=O)cc2Cl)n[nH]c1=O", "note": "[Compound 28, 6-(3,5-dichloro-4-((5-ethyl-6-oxo-1,6-dihydropyridazin-3-yl)oxy)phenyl)-2-methyl-1,2,4-triazine-3,5(2H,4H)-dione]", "values": [{"measurement": "THRβ-Selectivity", "setting": "[1]", "result": 19.2}, {"measurement": "EC50", "setting": "[1]", "result": 0.67, "unit": "µM"}, {"measurement": "EC50", "setting": "[2]", "result": 3.44, "unit": "µM"}]}, {"smiles": "CC(CO)c1cc(Oc2c(Cl)cc(-c3nn(C)c(=O)[nH]c3=O)cc2Cl)n[nH]c1=O", "note": "(stereo not drawn) [Compound 29, 6-(3,5-dichloro-4-((5-(1-hydroxypropan-2-yl)-6-oxo-1,6-dihydropyridazin-3-yl)oxy)phenyl)-2-methyl-1,2,4-triazine-3,5(2H,4H)-dione]", "values": [{"measurement": "THRβ-Selectivity", "setting": "[1]", "result": 7.105}, {"measurement": "EC50", "setting": "[1]", "result": 2.07, "unit": "µM"}, {"measurement": "EC50", "setting": "[2]", "result": 4.04, "unit": "µM"}]}, {"smiles": "CCC(O)c1cc(Oc2c(Cl)cc(-c3nn(C)c(=O)[nH]c3=O)cc2Cl)n[nH]c1=O", "note": "(stereo not drawn) [Compound 30, 6-(3,5-dichloro-4-((5-(1-hydroxypropyl)-6-oxo-1,6-dihydropyridazin-3-yl)oxy)phenyl)-2-methyl-1,2,4-triazine-3,5(2H,4H)-dione]", "values": [{"measurement": "THRβ-Selectivity", "setting": "[1]", "result": 24.7}, {"measurement": "EC50", "setting": "[1]", "result": 0.214, "unit": "µM"}, {"measurement": "EC50", "setting": "[2]", "result": 1.31, "unit": "µM"}]}, {"smiles": "CC(O)c1cc(Oc2c(Cl)cc(-c3nn(C)c(=O)[nH]c3=O)cc2Cl)n[nH]c1=O", "note": "(stereo not drawn) [Compound 31, 6-(3,5-dichloro-4-((5-(1-hydroxyethyl)-6-oxo-1,6-dihydropyridazin-3-yl)oxy)phenyl)-2-methyl-1,2,4-triazine-3,5(2H,4H)-dione]", "values": [{"measurement": "THRβ-Selectivity", "setting": "[1]", "result": 14.4}, {"measurement": "EC50", "setting": "[1]", "result": 0.987, "unit": "µM"}, {"measurement": "EC50", "setting": "[2]", "result": 2.67, "unit": "µM"}]}, {"smiles": "CCC(C)c1cc(Oc2c(Cl)cc(-c3nn(C)c(=O)[nH]c3=O)cc2Cl)n[nH]c1=O", "note": "(stereo not drawn) [Compound 32, 6-(4-((5-(sec-butyl)-6-oxo-1,6-dihydropyridazin-3-yl)oxy)-3,5-dichlorophenyl)-2-methyl-1,2,4-triazine-3,5(2H,4H)-dione]", "values": [{"measurement": "THRβ-Selectivity", "setting": "[1]", "result": 20.9}, {"measurement": "EC50", "setting": "[1]", "result": 0.231, "unit": "µM"}, {"measurement": "EC50", "setting": "[2]", "result": 1.13, "unit": "µM"}]}, {"smiles": "CC(O)c1cc(Oc2c(Cl)cc(-c3n[nH]c(=O)[nH]c3=O)cc2Cl)n[nH]c1=O", "note": "(stereo not drawn) [Compound 34, 6-(3,5-dichloro-4-((5-(1-hydroxyethyl)-6-oxo-1,6-dihydropyridazin-3-yl)oxy)phenyl)-1,2,4-triazine-3,5(2H,4H)-dione]", "values": [{"measurement": "THRβ-Selectivity", "setting": "[1]", "result": 8.6}, {"measurement": "EC50", "setting": "[1]", "result": 0.4, "unit": "µM"}, {"measurement": "EC50", "setting": "[2]", "result": 1.16, "unit": "µM"}]}, {"smiles": "CC(=O)c1cc(Oc2c(Cl)cc(-c3n[nH]c(=O)[nH]c3=O)cc2Cl)nn(C)c1=O", "note": "[Compound 35, 6-(4-((5-acetyl-1-methyl-6-oxo-1,6-dihydropyridazin-3-yl)oxy)-3,5-dichlorophenyl)-1,2,4-triazine-3,5(2H,4H)-dione]", "values": [{"measurement": "THRβ-Selectivity", "setting": "[1]", "result": 10.6}, {"measurement": "EC50", "setting": "[1]", "result": 0.665, "unit": "µM"}, {"measurement": "EC50", "setting": "[2]", "result": 1.87, "unit": "µM"}]}]}
